Reference: patent EP0341661A2, “Peptide-drug compositions containing alpha-aminoboronic acid derivatives” (THE DU PONT MERCK PHARMACEUTICAL COMPANY, priority 1988, dated 1989)

Experiments:
[1] = test system: aminopeptidases; assay: In situ nasal perfusion: degradation of 100 µM leucine enkephalin in the nasal perfusate; type: in vivo, Sprague-Dawley rats; conditions: for order of inhibition of degradation: 0.1 µM boroleucine, 10 µM bestatin, 100 µM puromycin; for % Leucine Enkephalin Remaining: 0.1 µM inhibitor
Protocol: In order to evaluate the effectiveness of the α-aminoboronic acid derivative inhibitors of this invention, an animal model was used (according to A. Hussain, J. Furaj, A. Yukihiko and J. E. Truelove, Biochem. Biophys. Res. Com. 133, 923, 1985) to assess the degradation of proteins and peptides in situ and in vivo in situ in the nasal cavity of rats. The method involved the use of Sprague-Dawley rats weighing approximately 300 grams. Each rat was anesthetized with sodium pentobarbitol (50 mg/kg). An incision was made in the neck and the trachea was canulated with PE 240 tubing. For the in situ studies, a second tube, which served to introduce the perfusing solution, was inserted through the esophagus to the posterior part of the nasal cavity. The nasopalatine was closed with an adhesive to prevent drainage of the perfusing solution from the nasal to the oral cavity. For the in vivo in situ studies, the esophagus was canulated using PE 240 tubing closed at one end. The closed end was pushed to the posterior end of the nasal passage and then tied in place. The nasopalatine was closed with an adhesive to prevent drainage of the perfusing solution from the nasal to the oral cavity. The rats were dosed in one nostril with 50 µl of peptide solution in two forms; the control solution had no inhibitor added, the test solution had inhibitor added at concentrations specified in the examples shown below. The dosing solution was 0.1 M phosphate buffer (pH 7.4). At certain time intervals (one rat/time interval), the drug was washed from the nose via the other nostril with 10 ml of 0.1 M phosphate buffer (pH 3.8) using a peristaltic pump. The nasal washing was then placed in a 10 ml volumetric flask and adjusted to 10 ml with the same buffer and analyzed for the peptide by HPLC. The analysis of leucine enkephalin and its major metabolite involved taking aliquots of samples, diluting them with 200 µl of 0.1 M citric acid (pH 2.3) to quench hydrolysis and subjecting the samples to analysis (for in vivo in situ studies, the washings were injected as they were obtained). High Pressure Liquid Chromatography (HPLC) was run on a 4.6 x 250 mm C₈ column. The mobile phase consisted of 0.1 M NaH₂PO₄-H₃PO₄-acetonitrile (916 : 5 : 275) and was delivered at a flow rate of 1.7 ml/min. Detection was by UV at 210 nm. Retention times for leucine enkephalin and its major degradation product, Des-Tyr-leucine enkephalin were 7.3 and 4.8 min., respectively. Data were calculated as % of leucine enkephalin remaining in the nasal perfusate as a function of time, counting the concentration at zero time as 100%. In this example, a 10 ml solution of 0.1 M phosphate buffer solution (pH 7.4) containing 100 µM leucine enkephalin (the peptide) in the absence or presence of 0.1 µM 3-methyl-1(4,4,5,5-tetramethyl-1,3,2-dioxaborolane-2-yl)-1-butamine, trifluoroacetic acid salt (boroleucine) as the inhibitor was perfused nasally in rats as described above. A 10 ml portion of the peptide solution was placed in a water-jacketed container, maintained at 37°C and circulated through the nasal cavity of rats using a peristaltic pump. The perfusing solution was passed through the nasal cavity, out the nostrils, through a funnel, and returned to the water-jacketed container. The perfusate was analyzed by the ANALYTICAL METHOD described above.

[2] = test system: aminopeptidases; assay: as above; type: in vivo, Sprague-Dawley rats; conditions: 10 µM inhibitor
[3] = in vivo, cited from earlier work

COc1ccc(C[C@H](N)C(=O)N[C@H]2[C@@H](O)[C@H](n3cnc4c(N(C)C)ncnc43)O[C@@H]2CO)cc1 [Puromycin, puromycin, reference compound]
order of inhibition of degradation [1]: boroleucine> bestatin> puromycin | % of leucine enkephalin remaining in the nasal perfusate ([1]; 100 µM inhibitor, 0 min): 100.0±0.0% | % of leucine enkephalin remaining in the nasal perfusate ([1]; 100 µM inhibitor, 5 min): 96.7±2.4% | % of leucine enkephalin remaining in the nasal perfusate ([1]; 100 µM inhibitor, 10 min): 91.3±3.4% | % of leucine enkephalin remaining in the nasal perfusate ([1]; 100 µM inhibitor, 20 min): 82.4±4.1% | % of leucine enkephalin remaining in the nasal perfusate ([1]; 100 µM inhibitor, 30 min): 78.5±3.2% | % of leucine enkephalin remaining in the nasal perfusate ([1]; 100 µM inhibitor, 45 min): 73.6±2.2% | % of leucine enkephalin remaining in the nasal perfusate ([1]; 100 µM inhibitor, 60 min): 63.5±5.6% | % of leucine enkephalin remaining in the nasal perfusate ([1]; 100 µM inhibitor, 90 min): 48.9±6.7%

CC(N)B1OC(C)(C)C(C)(C)O1.O=C(O)C(F)(F)F (stereo not drawn) [boroalanine, α,4,4,5,5-pentamethyl-1,3,2-dioxaborolane-2-methanamine, trifluoroacetic acid salt]
% Leucine Enkephalin Remaining ([1]; 0 min): 100.0± 0.0% | % Leucine Enkephalin Remaining ([1]; 5 min): 94.7± 3.0% | % Leucine Enkephalin Remaining ([1]; 10 min): 91.9± 2.1% | % Leucine Enkephalin Remaining ([1]; 20 min): 88.5± 2.2% | % Leucine Enkephalin Remaining ([1]; 30 min): 84.1± 3.1% | % Leucine Enkephalin Remaining ([1]; 45 min): 77.5± 4.4% | % Leucine Enkephalin Remaining ([1]; 60 min): 69.9± 6.7% | % Leucine Enkephalin Remaining ([1]; 90 min): 56.4±12.1%

CC(C)C[C@H](NC(=O)[C@@H](O)[C@H](N)Cc1ccccc1)C(=O)O [Bestatin, bestatin, reference compound]
order of inhibition of degradation [1]: boroleucine> bestatin> puromycin | % of leucine enkephalin remaining in the nasal perfusate ([1]; 10 µM inhibitor, 0 min): 100.0±0.0% | % of leucine enkephalin remaining in the nasal perfusate ([1]; 10 µM inhibitor, 10 min): 94.7±1.7% | % of leucine enkephalin remaining in the nasal perfusate ([1]; 10 µM inhibitor, 30 min): 86.6±3.8% | % of leucine enkephalin remaining in the nasal perfusate ([1]; 10 µM inhibitor, 45 min): 79.0±5.3% | % of leucine enkephalin remaining in the nasal perfusate ([1]; 10 µM inhibitor, 90 min): 57.3±8.8% | % of leucine enkephalin remaining in the nasal perfusate ([2]; 5 min): 97.3±1.6% | % of leucine enkephalin remaining in the nasal perfusate ([2]; 20 min): 90.0±3.3% | % of leucine enkephalin remaining in the nasal perfusate ([2]; 60 min): 72.3±6.7%

CC(C)C(N)B1OC(C)(C)C(C)(C)O1.O=C(O)C(F)(F)F (stereo not drawn) [borovaline, 4,4,5,5-tetramethyl-α-(1-methylethyl)-1,3,2-dioxaborolane-2-methanamine, trifluoroacetic acid salt]
% Leucine Enkephalin Remaining ([1]; 0 min): 100.0±0.0% | % Leucine Enkephalin Remaining ([1]; 5 min): 96.3±1.9% | % Leucine Enkephalin Remaining ([1]; 10 min): 95.7±1.5% | % Leucine Enkephalin Remaining ([1]; 20 min): 94.8±1.4% | % Leucine Enkephalin Remaining ([1]; 30 min): 91.6±1.6% | % Leucine Enkephalin Remaining ([1]; 45 min): 89.1±2.5% | % Leucine Enkephalin Remaining ([1]; 60 min): 86.2±2.5% | % Leucine Enkephalin Remaining ([1]; 90 min): 78.3±4.3% | comparison of the inhibitory effect of equimolar concentrations ([1]; 0.1 µM of each inhibitor): superior to boroalanine

leuprolide
improvement of bioavailability over the oral route (factor) ([3]; po): 112 times | drug absorbed systemically ([3]; sc): over 65%
